Test: mn = molality of the nth substance listed, in mol/kg
Details: 101 kPa, Liquid; for mass density: Vibrating tube method; for speed of sound: vibrating tube:WF =

CC(C)[C@H](NC(=O)[C@H](C)N)C(=O)O [L-alanyl-L-valine] + O
Details	mass density, 305.15 K [kg/m3]	mass density, 310.15 K [kg/m3]	mass density, 315.15 K [kg/m3]	speed of sound, 305.15 K [m/s]	speed of sound, 310.15 K [m/s]	speed of sound, 315.15 K [m/s]
m1 = 0.00201	995.187	993.499	991.606	1514.3	1524.8	1533.5
m1 = 0.00414	995.289	993.601	991.707	1514.5	1525	1533.7
m1 = 0.00605	995.381	993.692	991.798	1514.6	1525.2	1534
m1 = 0.00791	995.471	993.781	991.886	1514.8	1525.5	1534.1
m1 = 0.01019	995.58	993.89	991.994	1515	1525.7	1534.3
m1 = 0.01179	995.657	993.966	992.07	1515.2	1525.9	1534.4
m1 = 0.01396	995.761	994.07	992.173	1515.4	1526.1	1534.6
m1 = 0.01551	995.835	994.143	992.246	1515.6	1526.4	1534.8
m1 = 0.01805	995.957	994.264	992.366	1515.8	1526.7	1535
m1 = 0.01971	996.037	994.343	992.445	1515.9	1526.9	1535.2

CC1(C)SC2C(NC(=O)C(N)c3ccccc3)C(=O)N2C1C(=O)O (stereo not drawn) + O
Details	mass density, 305.15 K [kg/m3]	mass density, 310.15 K [kg/m3]	mass density, 315.15 K [kg/m3]	speed of sound, 305.15 K [m/s]	speed of sound, 310.15 K [m/s]	speed of sound, 315.15 K [m/s]
m1 = 0.0005	995.062	993.352	991.353	1513.7	1523.7	1532.2
m1 = 0.002	995.271	993.569	991.665	1514.8	1524.8	1533
m1 = 0.004	995.458	993.755	991.87	1516	1526	1534
